Laboratory results as given in patent publication EP0610475B1, “NERVE-DERIVED TRANSG[…] USEFUL FOR INDUCING NERVE REGENERATION” (YEDA RESEARCH AND DEVELOPMENT COMPANY, LTD., priority 1992, dated 1994).
Where two headings read alike, the source gives them in different places.

System: nerve-derived transglutaminase (TGN) purified from regenerating fish optic nerve, Carp (Cyprinus carpio), 55 kDa
Description: The incorporation of radioactive putrescine to a carrier protein is an assay characteristic of enzymes of the transglutaminase family. Any carrier protein that has lysine residues may be used in the assay, such as casein, bovine serum albumin, etc.
In this example, activity characteristic of the nerve-derived transglutaminase was measured by incorporation of [^14C)putrescine into N,N-dimethylcasein (Chakrabarty et al., 1987). The purified TGN enzyme eluted from the TG-Ab affinity column with glycine in Example 3 was dialyzed for 2 hours in the presence of N,N-dimethylcasein (1 mg/ml), before being added to the reaction mixture. The reaction was initiated by addition of […] TGN ([…]), followed by incubation for 20 min at 37°C and terminated by the addition of ice-cold trichloroacetic acid (TCA; final concentration, 5%).
The enzyme activity was titrated with respect to temperature and pH and substrate concentration. […] Titration was carried out by measuring incorporation of [^14C]putrescine to caseine in the presence of TGN.

With `NCCCCN` [putrescine] the Km (incorporation of [^14C]putrescine to caseine in the presence of TGN, calculated from titration of activity as a function of substrate concentration, 20 min at 37°C) was 0.55 µM and the Km (read-out: Km in the incorporation of putrescine, calculated as a function of substrate, list of TGN characteristics, unit inferred) was 0.55 µM.
